“Also recorded” adds a separate entry of the source.
Key:
HEK293 cells = experiment: Cytotoxicity on HEK293 cells, eFluor780 fixable viability dye, flow cytometry; format: cell-based; details: increasing concentrations, 24 hours
Procedure: (§1) Before IAA was used as an expression inducer for the transduced cell lines, it was assessed for any cytotoxic effects on CHO-K1 and HEK293 cells. Cell viability in both HEK293 and CHO-K1 cells was measured by flow cytometry 24 hours post addition of IAA over the concentration range indicated.
(§2) HEK293 and CHO-K1 cells were treated with the indicated concentrations of IAA for 24 hours before being stained with eFluor780 fixable viability dye and analysed by flow cytometry.

CHO-K1 cells = experiment: Cytotoxicity on CHO-K1 cells, eFluor780 fixable viability dye, flow cytometry; format: cell-based; details: increasing concentrations, 24 hours
Procedure: as §1, §2

CD4+ and CD8+ T cells = experiment: Proliferation and IFNγ production of PBMC T cells stimulated with CD3/CD28 Dynabeads; format: cell-based, human; details: PBMCs from two donors, concentration series, 96 hrs; for IFNγ production: ELISA; for proliferation of CD4+ T cells / proliferation of CD8+ T cells: proliferation dye
Source text: One of the main considerations for application of the CIP system in immunology assays using primary human immune cells, is the effect that the small molecules (e,g. IAA) may have on cell viability and normal function. For example, one of the main limitations of one of the rapamycin-CIP systems is the high immunoregulatory effect of rapamycin on immune cells that limits its applicability in immunology assays. The inventors assessed the effect of IAA in the function of immune cells. PBMCs from two donors were stimulated with Human T-Activator CD3/CD28 targeting Dynabeads to stimulate T cell activation and proliferation, in the presence of a increasing concentration series of IAA. T cell proliferation and IFNγ production was analysed 96 hrs post stimulation to determine any negative effects on T cells. The concentration series of IAA was selected to reflect the concentration expected to be used in assays. […] Proliferation of CD4+ (A) and CD8+ (B) T cells was assessed by flow cytometry using a proliferation dye. The results are shown in FIG. 3, IFNγ production was assessed by ELISA (panel C), n=3, graphs report […]+SD.
For example one of the main limitation of one of the rapamycin-CIP system is the high immunoregulatory effect of rapamycin on immune cells that limits its applicability in immunology assays.
Peripheral Blood Mononuclear Cells (PBMCs) from two donors were labelled with eBioscience™ Cell Proliferation Dye eFluor™ 670 (ThermoFisher #65-0840-90). […] The cells were incubated for 96 hrs in a humidified incubator at 37° C./6% CO2 at which point proliferation of CD4+ and CD8+ T cells was assessed by flow cytometry. In parallel, supernatants were collected and the levels of IFNγ was analysed by ELISA (Human IFN-gamma DuoSet ELISA, R&D systems #DY285B).

IAA CIP system [1] = experiment: EGFP reporter expression in HEK293 cells with IAA activator cassette and i-Scel EGFP reporter; format: cell-based; details: 24 hours
Source text: (§3) The levels of expression correlate with the number of i-Scel sites, with negligible induction observed at 1× i-Scel and the highest induction over background observed with the 10× i-Scel sites reporter. […] However, the inventors predict, that the inclusion of higher numbers of i-Scel binding sites in the reporter/TAOI cassette, would result in higher levels of induction of the reporter/TAOI.
(§4) Therefore, the 5× and 10× i-Scel binding site pools for HEK293 and CHO-K1 cells were single cell dilution cloned, and colonies picked from each cell pool and then analysed for induction of expression following IAA treatment. […] The HEK293 and CHO-K1 cells containing the IAA activator cassette and the 10× and 5× i-Scel reporter constructs were seeded overnight in 96 well plates. IAA was added at the indicated concentration and the cells were incubated for a further 24 hours. EGFP expression was detected by flow cytometry analysis.
(§5) The HEK293 and CHO-K1 cells containing the IAA activator cassette and the 10× i-Scel reporter construct were seeded overnight in 96 well plates. IAA was added at the indicated concentrations and the cells were incubated for a further 24 hours. EGFP expression was detected by flow cytometry analysis.
(§6) HEK293 and CHO-K1 cells containing the IAA activator cassette and the EGFP reporter constructs were seeded in 6 well plates. Following overnight incubation, the media was replaced with fresh media containing the indicated concentrations of IAA and the cells incubated for a further 24 hours. EGFP expression was detected using a NovoCyte flow cytometer (ACEA).

IAA CIP system [2] = experiment: EGFP reporter expression in CHO-K1 cells with IAA activator cassette and i-Scel EGFP reporter; format: cell-based; details: 24 hours
Source text: as §3, §4, §5, §6

IAA CIP system [3] = experiment: CD19 expression in CHO-K1 IAA activator 10× i-Scel CD19 reporter cells; format: cell-based
Source text: To test the system in a therapeutically relevant target, a construct expressing CD19 under the control of 10× i-Scel binding sites was introduced into the IAA activator cassette containing CHO-K1 cells and clones isolated. As the purpose of the system is to provide titratable expression of a given receptor (usually a tumour associated antigen) within a biologically relevant range, the CD19 expression was quantified using a Quantibrite bead fluorescence quantification kit which contains multiple bead populations each conjugated with set numbers of fluorophore molecules (PE in this case) per bead. Assuming the fluorophore conjugation to the detection antibody is at a 1:1 ratio (which was confirmed by the manufacture) and antibody binding to the receptor of interest (CD19) occurs at a 1:1 ratio, the number of CD19 receptors per cell can be calculated. By means of comparison, the CD19 expression level of the CD19 positive cells found in peripheral blood mononuclear cells (PBMCs), e.g. B cells, and Ramos cells were calculated in the same experiment.
(§7) Following this incubation, the cells were analysed for CD19 expression by flow cytometry.
CHO-K1 cells containing the IAA activator cassette and a 10× i-Scel CD19 reporter construct were seeded overnight in 96 well plates. […] CD19 expression was assess by flow cytometry and quantified for receptor number per cell. […]

ABA CIP system [4] = experiment: tagBFP and CD19 reporter expression in CHO-K1 ABA activator cells; format: cell-based
Procedure: CD19 expression was detected by flow cytometry analysis and the number of CD19 receptors per cell was quantified using a Quantibrite PE bead fluorescence quantification kit (BD Biosciences). The CD19 receptors per cell for Ramos, Raji and B cells isolated from PBMCs are shown by way of comparison.
as §7
CD19 expression was detected by anti-CD19 staining (Biolegend #302254) and flow cytometry analysis. The number of CD19 receptors per cell was quantified using a Quantibrite PE bead fluorescence quantification kit (BD Biosciences #340495).

ABA CIP system [5] = experiment: ABA-inducible CD22 expression in CHO-K1 cells containing both IAA and ABA CIP systems; format: cell-based; details: CHO-K1 IAA CD19 / ABA CD22 cells, IAA concentration series
Procedure: (§8) CD22 and CD19 expression was measured by flow cytometry and mean fluorescence intensity corresponding to CD22 and CD19 expression was plotted.

CD19 = molecular target: T1, CD19 (Homo sapiens, UniProt P15391); experiment: T cell engager assay, Jurkat NFAT luciferase reporter cells with CHO-K1 IAA or ABA activator CD19 reporter cells; format: cell-based
T1 construct: expressed in transfected cells
T1 sequence (P15391 20-556): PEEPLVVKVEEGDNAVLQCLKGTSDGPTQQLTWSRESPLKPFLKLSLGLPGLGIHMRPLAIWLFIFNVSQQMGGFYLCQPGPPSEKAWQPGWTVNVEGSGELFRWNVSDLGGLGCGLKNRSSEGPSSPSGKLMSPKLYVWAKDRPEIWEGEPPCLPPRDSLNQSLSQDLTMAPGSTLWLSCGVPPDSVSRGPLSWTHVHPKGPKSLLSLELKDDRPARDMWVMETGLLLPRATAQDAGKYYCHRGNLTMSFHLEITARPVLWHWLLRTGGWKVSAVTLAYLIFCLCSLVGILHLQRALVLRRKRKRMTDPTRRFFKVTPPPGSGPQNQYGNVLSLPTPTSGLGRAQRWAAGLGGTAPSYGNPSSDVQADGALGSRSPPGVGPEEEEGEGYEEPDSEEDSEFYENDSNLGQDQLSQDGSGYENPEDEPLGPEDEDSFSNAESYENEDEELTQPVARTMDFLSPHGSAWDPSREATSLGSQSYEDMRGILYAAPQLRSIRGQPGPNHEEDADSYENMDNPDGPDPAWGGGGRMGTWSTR
Procedure: This represents a typical assay set up for measuring the effect of a bispecific against cells expressing its target antigen.
NFAT activation was determined by luminescence after 24 hours (48 Hours from assay start) and plotted against CD19 expression quantified by staining with PE anti-CD19 and plotted on a curve generated using Quantibrite PE receptor quantification kit. n=3, graphs report mean±SD.

ABA CIP system [6] = experiment: tagBFP and CD19 reporter expression in HEK293 ABA activator cells; format: cell-based; details: 1000 μM ABA, 24 hours
IAA CIP system [7] = experiment: IAA-inducible CD19 expression in CHO-K1 cells containing both IAA and ABA CIP systems; format: cell-based; details: CHO-K1 IAA CD19 / ABA CD22 cells, ABA concentration series
Procedure: as §8

[8] = CHO-K1 ABA activator cells, 1000 μM ABA, 24 hours

O=C(O)Cc1c[nH]c2ccccc12 [IAA, indole-3-acetic acid]
cell viability (percentage of cells which do not take up the dye) (HEK293 cells): no decrease in cell viability was observed
cell viability (percentage of cells which do not take up the dye) (CHO-K1 cells): no decrease in cell viability was observed
IFNγ production (CD4+ and CD8+ T cells): little or no effect
proliferation of CD4+ T cells (CD4+ and CD8+ T cells): little or no effect
proliferation of CD8+ T cells (CD4+ and CD8+ T cells): little or no effect
dose dependence of EGFP expression (IAA CIP system [1]; HEK293 10× i-Scel EGFP clone): dose-dependent induction of EGFP expression
induction of EGFP expression (IAA CIP system [1]; HEK293 stable pools, 1×, 5×, 10× i-Scel sites): induction of expression of EGFP can clearly be seen
additional induction of EGFP at 1000 μM compared to 500 μM (IAA CIP system [1]; HEK293 stable pools): no evidence of additional induction
dose dependence of EGFP expression (IAA CIP system [2]; CHO-K1 10× i-Scel EGFP clone): dose-dependent induction of EGFP expression
induction of EGFP expression (IAA CIP system [2]; CHO-K1 stable pools, 1×, 5×, 10× i-Scel sites): induction of expression of EGFP can clearly be seen
additional induction of EGFP at 1000 μM compared to 500 μM (IAA CIP system [2]; CHO-K1 stable pools): no evidence of additional induction
dose dependence of CD19 expression (receptors per cell) (IAA CIP system [3]; CHO-K1 IAA activator 10× i-Scel CD19 clone, IAA concentration range, 72 hours): a dose dependent range of CD19 expression has been achieved
CD19 expression from the ABA CIP system (cross-talk) (ABA CIP system [4]; CHO-K1 ABA activator CD19 reporter cells, 1000 μM IAA, 24 hours): does not induce expression
CD22 expression from the ABA system upon IAA (cross-talk in a single cell line) (ABA CIP system [5]): does not induce expression; also recorded: without IAA inducing ABA-activated CD22 expression

Blincyto: CD19×CD3 targeting bispecific T cell engager
NFAT luciferase signal against number of CD19 receptors (CD19; Blincyto 10 ng/mL and 25 ng/mL, luminescence after 24 hours): concurrent increase in luciferase signal
NFAT luciferase signal at the higher concentration compared to the lower (CD19; Blincyto 25 ng/mL versus 10 ng/mL): higher but remains IAA and ABA dose dependent

S-(+)-abscisic acid [ABA]
IFNγ production (CD4+ and CD8+ T cells): minimal effects
proliferation of CD4+ T cells (CD4+ and CD8+ T cells): minimal effects
proliferation of CD8+ T cells (CD4+ and CD8+ T cells): minimal effects
CD19 expression from the IAA system (cross-talk) (IAA CIP system [3]; CHO-K1 IAA activator CD19 reporter cells, 1000 μM ABA, 24 hours): does not induce expression
CD19 expression (ABA CIP system [6]): expression of both tagBFP and CD19 was obtained
tagBFP expression (ABA CIP system [6]): expression of both tagBFP and CD19 was obtained
dose dependence of CD19 expression (receptors per cell) (ABA CIP system [4]; CHO-K1 ABA activator 9×Gal4 UAS CD19 clone, ABA concentration range, 48 hours): dose dependent induction of CD19 expression
CD19 expression (ABA CIP system [4]; [8]): expression of both tagBFP and CD19 was obtained
tagBFP expression (ABA CIP system [4]; [8]): expression of both tagBFP and CD19 was obtained
CD19 expression from the IAA CIP system upon ABA (cross-talk in a single cell line) (IAA CIP system [7]): does not induce expression; also recorded: without ABA inducing IAA-activated CD 19 expression

Source: patent US20250290916A1 (Antibody Analytics Limited, priority 2022, published 2025)
